Test systems include HCC 2998; T47D; COLO 205; TK-10; SK-MEL-28; SW-620; SNB-75; SF-268; MCF7; RPMI-8226; MDA-MB-435; SNB-19; UACC-257; M14; Hs-578T; KM12; 786-0; OVCAR-8; MDA-N; OVCAR-5.
What all share (experiment): NCI anticancer screen, dose series, 48 h

Each structure is given as a SMILES string.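 Compound exposure: 48 hours, 5 concentrations, 96-well plates. Here, GI50 denotes the concentration required for 50% inhibition of growth.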 Active and inactive are the calls of the source. Rule as the data show it: active = GI50 up to about 1.1 µM and inactive = higher.

For `O=C1NC(=O)C(Cc2ccccc2)(c2cccnc2)N1` (stereo not given), the GI50 in the assay with HCC 2998, in the assay with T47D, with COLO 205, in the assay with TK-10, with SK-MEL-28 and with SW-620 was > 100 µM (inactive) in each case. The GI50 in the assay on SNB-75, in the assay with SF-268, in the assay on MCF7, with RPMI-8226, in the assay on MDA-MB-435 and in the assay on SNB-19 was > 100 µM (inactive) in each case. In addition, the GI50 with UACC-257, in the assay with M14, with Hs-578T, with KM12, with 786-0 and in the assay with OVCAR-8 was > 100 µM (inactive) in each case. The GI50 in the assay with MDA-N and with OVCAR-5 was > 100 µM (inactive) in each case.

With `CCN(Cc1cc(Cl)cc(C)c1O)Cc1c(O)ccc2ccccc12`, the GI50 with HCC 2998 was 16.8 µM (inactive); with T47D, 16.6 µM (inactive); in the assay on COLO 205 it was 22.7 µM (inactive); in the assay on TK-10 it was 17.1 µM (inactive); in the assay with SK-MEL-28 it was 17.9 µM (inactive); with SW-620 it was 25.4 µM (inactive). The GI50 with SNB-75 was 11.7 µM (inactive); in the assay with SF-268, 18.2 µM (inactive); with MCF7 it was 19.9 µM (inactive); with RPMI-8226 it was 17.4 µM (inactive); in the assay with MDA-MB-435 it was 15.8 µM (inactive); in the assay with SNB-19 it was 18.5 µM (inactive). Further, the GI50 was 15.8 µM (inactive) with UACC-257; 18.4 µM (inactive) in the assay with M14; 15.9 µM (inactive) in the assay with Hs-578T; 17.3 µM (inactive) in the assay on KM12; 16.8 µM (inactive) in the assay on 786-0; 17.7 µM (inactive) in the assay with OVCAR-8. Moreover, the GI50 in the assay with MDA-N was 18.1 µM (inactive); in the assay with OVCAR-5, 17.6 µM (inactive).

For `Cc1cc(N)ccc1C=O`, the GI50 in the assay with HCC 2998, with T47D, with COLO 205, with TK-10, in the assay with SK-MEL-28 and in the assay on SW-620 was > 100 µM (inactive) in each case. In addition, the GI50 in the assay with SNB-75, in the assay on SF-268, in the assay on MCF7, with RPMI-8226, with MDA-MB-435 and in the assay with SNB-19 was > 100 µM (inactive) each time. In addition, the GI50 in the assay with UACC-257, in the assay on M14, with Hs-578T, in the assay with KM12, in the assay on 786-0 and in the assay with OVCAR-8 was > 100 µM (inactive) each time. Besides, the GI50 in the assay with MDA-N and in the assay with OVCAR-5 was > 100 µM (inactive) each time.

Turning to `COc1ccc(/C=N/NC(=O)c2cnc3[nH]c(=O)n(C)c(=O)c3c2)cc1`, the GI50 in the assay with HCC 2998 was > 100 µM (inactive); in the assay on T47D it was > 100 µM (inactive); in the assay with COLO 205 it was > 100 µM (inactive); with TK-10, 46.5 µM (inactive); in the assay on SK-MEL-28, > 100 µM (inactive); in the assay on SW-620, > 100 µM (inactive). For the same molecule, the GI50 was 13.1 µM (inactive) in the assay with SNB-75; 45.2 µM (inactive) with SF-268; > 100 µM (inactive) in the assay on MCF7; > 100 µM (inactive) in the assay with RPMI-8226; > 100 µM (inactive) in the assay with MDA-MB-435; 34.1 µM (inactive) in the assay on SNB-19. In addition, the GI50 is > 100 µM (inactive) with UACC-257; > 100 µM (inactive) in the assay on M14; 39.9 µM (inactive) in the assay with Hs-578T; > 100 µM (inactive) with KM12; 34.4 µM (inactive) with 786-0; 40.6 µM (inactive) with OVCAR-8. In addition, the GI50 in the assay on MDA-N and with OVCAR-5 was > 100 µM (inactive) throughout.

Turning to `O=C1N=C2SC=C(NC(=S)Nc3ccccc3)N2NC12c1ccccc1-c1ccccc12`, the GI50 was > 10 µM (inactive) in the assay on HCC 2998; 5.7 µM (inactive) in the assay with T47D; > 10 µM (inactive) with COLO 205; > 10 µM (inactive) in the assay on TK-10; > 10 µM (inactive) in the assay on SK-MEL-28; > 10 µM (inactive) in the assay on SW-620. The GI50 with SNB-75, in the assay with SF-268, with MCF7, in the assay with RPMI-8226, in the assay with MDA-MB-435 and in the assay on SNB-19 was > 10 µM (inactive) each time. Moreover, the GI50 with UACC-257, in the assay with M14, in the assay with Hs-578T, in the assay with KM12, in the assay with 786-0 and in the assay on OVCAR-8 was > 10 µM (inactive) each time. The GI50 in the assay with MDA-N and with OVCAR-5 was > 10 µM (inactive) throughout.

For the molecule `COc1ccc(/C=N/NC(=O)c2ccccc2Nc2ccccc2C(=O)N/N=C/c2ccc(OC)c(OC)c2)cc1OC`, the GI50 in the assay with HCC 2998, in the assay with T47D, in the assay with COLO 205, with TK-10, in the assay on SK-MEL-28 and in the assay on SW-620 was > 100 µM (inactive) in each case. The GI50 with SNB-75, with SF-268, in the assay with MCF7, with RPMI-8226, with MDA-MB-435 and in the assay on SNB-19 was > 100 µM (inactive) each time. The GI50 with UACC-257 was > 100 µM (inactive); with M14, 36.5 µM (inactive); with Hs-578T, > 100 µM (inactive); with KM12 it was > 100 µM (inactive); in the assay with 786-0 it was > 100 µM (inactive); with OVCAR-8, > 100 µM (inactive). The GI50 in the assay on MDA-N and with OVCAR-5 was > 100 µM (inactive) each time.

Take `CSc1c(C(=O)Nc2ccccc2)c(N)n(N)c(=O)c1C#N`: the GI50 in the assay with HCC 2998, in the assay on T47D, with COLO 205, in the assay on TK-10, with SK-MEL-28 and in the assay with SW-620 was > 100 µM (inactive) throughout. Besides, the GI50 in the assay on SNB-75, with SF-268, in the assay with MCF7, in the assay on RPMI-8226, with MDA-MB-435 and with SNB-19 was > 100 µM (inactive) each time. In addition, the GI50 in the assay with UACC-257, with M14, in the assay with Hs-578T, in the assay on KM12, in the assay with 786-0 and with OVCAR-8 was > 100 µM (inactive) throughout. Further, the GI50 in the assay on MDA-N and with OVCAR-5 was > 100 µM (inactive) in each case.

Take `Cc1cc2c(cc1Cl)SC(NN(C)C)=NS2(=O)=O`: the GI50 in the assay with HCC 2998, in the assay on T47D, with COLO 205, in the assay with TK-10, in the assay on SK-MEL-28 and in the assay on SW-620 was > 10 µM (inactive) each time. The GI50 in the assay on SNB-75, with SF-268, in the assay on MCF7, in the assay with RPMI-8226, in the assay with MDA-MB-435 and with SNB-19 was > 10 µM (inactive) throughout. Further, the GI50 with UACC-257, in the assay on M14, in the assay on Hs-578T, in the assay with KM12, in the assay with 786-0 and with OVCAR-8 was > 10 µM (inactive) in each case. Besides, the GI50 in the assay on MDA-N and in the assay with OVCAR-5 was > 10 µM (inactive) each time.

In the case of `CCCCCCC(C)c1ccc2c(c1)C(=O)c1nc3ccncc3c(=O)n1-2` (stereo not given), the GI50 with HCC 2998 is 3.94 µM (inactive); with T47D, 3.63 µM (inactive); in the assay with COLO 205 it was 2.87 µM (inactive); with TK-10, 4.86 µM (inactive); in the assay on SK-MEL-28, 14.5 µM (inactive); in the assay with SW-620, 2.61 µM (inactive). For the same molecule, the GI50 with SNB-75 is 8.59 µM (inactive); with SF-268, 36.2 µM (inactive); in the assay with MCF7 it was 5.06 µM (inactive); with RPMI-8226 it was 1.15 µM (inactive); in the assay on MDA-MB-435, 0.352 µM (active); with SNB-19, 4.81 µM (inactive). For the same molecule, the GI50 is 2.84 µM (inactive) in the assay with UACC-257; 2.94 µM (inactive) with M14; 9.62 µM (inactive) in the assay with Hs-578T; 1.79 µM (inactive) in the assay on KM12; 2.29 µM (inactive) with 786-0; 6.87 µM (inactive) in the assay on OVCAR-8. In addition, the figures for the GI50 with MDA-N and with OVCAR-5 were 0.237 µM (active) and 5.43 µM (inactive), respectively.

Regarding `COc1cc(/C=C2\N=C(c3ccccc3)N(c3nc4cc(C)c(C)cc4s3)C2=O)cc(OC)c1OC`, the GI50 with HCC 2998 was 20.9 µM (inactive); in the assay on T47D, 40.9 µM (inactive); with COLO 205 it was 27.5 µM (inactive); in the assay on TK-10, 60 µM (inactive); in the assay on SK-MEL-28, 62.2 µM (inactive); in the assay with SW-620 it was 29.4 µM (inactive). The GI50 in the assay on SNB-75 is 18.5 µM (inactive); with SF-268 it was 23 µM (inactive); with MCF7 it was 18.5 µM (inactive); in the assay on RPMI-8226, 19.3 µM (inactive); with MDA-MB-435, 12.9 µM (inactive); in the assay with SNB-19, 36 µM (inactive). In addition, the GI50 with UACC-257 was 28.9 µM (inactive); in the assay with M14, 33.3 µM (inactive); in the assay with Hs-578T it was 16.6 µM (inactive); with KM12, 21.8 µM (inactive); with 786-0, 27.6 µM (inactive); with OVCAR-8, 19.8 µM (inactive). The GI50 with MDA-N was 16.1 µM (inactive); with OVCAR-5, 27.2 µM (inactive).
